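How tested: cells in 96-well plates exposed to compound for 48 hours at five concentrations. Abbreviation: GI50, concentration required for 50% inhibition of growth. Definition used: TGI = concentration required for complete inhibition of growth.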
Key:
Test in all cases: growth of human tumour cells (NCI), 48 h
786-0 renal = tested on: 786-0 renal
A498 renal = tested on: A498 renal
A549 NSCLC = tested on: A549 NSCLC
ACHN renal = tested on: ACHN renal
BT-549 breast = tested on: BT-549 breast
CCRF-CEM leukemia = tested on: CCRF-CEM leukemia
COLO 205 colon = tested on: COLO 205 colon
DU-145 prostate = tested on: DU-145 prostate
EKVX NSCLC = tested on: EKVX NSCLC
HCC-2998 colon = tested on: HCC-2998 colon
HCT-116 colon = tested on: HCT-116 colon
HCT-15 colon = tested on: HCT-15 colon
HL-60(TB) leukemia = tested on: HL-60(TB) leukemia
HOP-62 NSCLC = tested on: HOP-62 NSCLC
HOP-92 NSCLC = tested on: HOP-92 NSCLC
HS 578T breast = tested on: HS 578T breast
HT29 colon = tested on: HT29 colon
IGROV1 ovarian = tested on: IGROV1 ovarian
K-562 leukemia = tested on: K-562 leukemia
KM12 colon = tested on: KM12 colon
LOX IMVI melanoma = tested on: LOX IMVI melanoma
M14 melanoma = tested on: M14 melanoma
MALME-3M melanoma = tested on: MALME-3M melanoma
MCF7 breast = tested on: MCF7 breast
MDA-MB-231 breast = tested on: MDA-MB-231 breast
MDA-MB-435 = tested on: MDA-MB-435
MOLT-4 leukemia = tested on: MOLT-4 leukemia
NCI-H226 lung = tested on: NCI-H226 lung
NCI-H23 lung = tested on: NCI-H23 lung
NCI-H460 lung = tested on: NCI-H460 lung
NCI-H522 lung = tested on: NCI-H522 lung
NCI/ADR-RES ovarian = tested on: NCI/ADR-RES ovarian
OVCAR-3 ovarian = tested on: OVCAR-3 ovarian
OVCAR-4 ovarian = tested on: OVCAR-4 ovarian
OVCAR-5 ovarian = tested on: OVCAR-5 ovarian
OVCAR-8 ovarian = tested on: OVCAR-8 ovarian
PC-3 prostate = tested on: PC-3 prostate
RPMI-8226 leukemia = tested on: RPMI-8226 leukemia
RXF 393 renal = tested on: RXF 393 renal
SF-268 CNS = tested on: SF-268 CNS
SF-295 CNS = tested on: SF-295 CNS
SF-539 CNS = tested on: SF-539 CNS
SK-MEL-2 melanoma = tested on: SK-MEL-2 melanoma
SK-MEL-28 melanoma = tested on: SK-MEL-28 melanoma
SK-MEL-5 melanoma = tested on: SK-MEL-5 melanoma
SK-OV-3 ovarian = tested on: SK-OV-3 ovarian
SN12C renal = tested on: SN12C renal
SNB-19 CNS = tested on: SNB-19 CNS
SNB-75 CNS = tested on: SNB-75 CNS
SR leukemia = tested on: SR leukemia
SW-620 colon = tested on: SW-620 colon
T-47D breast = tested on: T-47D breast
TK-10 renal = tested on: TK-10 renal
U251 CNS = tested on: U251 CNS
UACC-257 melanoma = tested on: UACC-257 melanoma
UACC-62 melanoma = tested on: UACC-62 melanoma
UO-31 renal = tested on: UO-31 renal
CAKI-1 renal = tested on: CAKI-1 renal

CCCCCCCCCc1cc(-c2ccc(C=O)s2)sc1-c1ccc(C=O)s1
TGI (786-0 renal): > 85.2 µM
TGI (A498 renal): 3.12 µM
TGI (A549 NSCLC): > 100 µM
TGI (ACHN renal): > 100 µM
TGI (BT-549 breast): > 93.6 µM
TGI (CCRF-CEM leukemia): 8.51 µM
TGI (COLO 205 colon): > 31.6 µM
TGI (DU-145 prostate): > 100 µM
TGI (EKVX NSCLC): > 100 µM
TGI (HCC-2998 colon): > 78.7 µM
TGI (HCT-116 colon): 49 µM
TGI (HCT-15 colon): > 72.7 µM
TGI (HL-60(TB) leukemia): 51.1 µM
TGI (HOP-62 NSCLC): 74.8 µM
TGI (HOP-92 NSCLC): 75.8 µM
TGI (HS 578T breast): 46.5 µM
TGI (HT29 colon): > 100 µM
TGI (IGROV1 ovarian): 56.3 µM
TGI (K-562 leukemia): > 38 µM
TGI (KM12 colon): > 100 µM
TGI (LOX IMVI melanoma): 37 µM
TGI (M14 melanoma): 25 µM
TGI (MALME-3M melanoma): > 100 µM
TGI (MCF7 breast): > 54.3 µM
TGI (MDA-MB-231 breast): > 77.9 µM
TGI (MDA-MB-435): > 100 µM
TGI (MOLT-4 leukemia): 10.5 µM
TGI (NCI-H226 lung): 9.94 µM
TGI (NCI-H23 lung): 82.5 µM
TGI (NCI-H460 lung): > 83.2 µM
TGI (NCI-H522 lung): 45.6 µM
TGI (NCI/ADR-RES ovarian): > 78.6 µM
TGI (OVCAR-3 ovarian): 38.2 µM
TGI (OVCAR-4 ovarian): > 80.4 µM
TGI (OVCAR-5 ovarian): > 91.6 µM
TGI (OVCAR-8 ovarian): > 59 µM
TGI (PC-3 prostate): > 100 µM
TGI (RPMI-8226 leukemia): 51.2 µM
TGI (RXF 393 renal): 35.4 µM
TGI (SF-268 CNS): > 100 µM
TGI (SF-295 CNS): > 100 µM
TGI (SF-539 CNS): > 84.3 µM
TGI (SK-MEL-2 melanoma): 64.4 µM
TGI (SK-MEL-28 melanoma): > 100 µM
TGI (SK-MEL-5 melanoma): 34.6 µM
TGI (SK-OV-3 ovarian): 67.2 µM
TGI (SN12C renal): > 84 µM
TGI (SNB-19 CNS): > 87.1 µM
TGI (SNB-75 CNS): > 91.1 µM
TGI (SR leukemia): 26.9 µM
TGI (SW-620 colon): > 100 µM
TGI (T-47D breast): > 85.6 µM
TGI (TK-10 renal): 34.7 µM
TGI (U251 CNS): 29 µM
TGI (UACC-257 melanoma): 30.8 µM
TGI (UACC-62 melanoma): 23.7 µM
TGI (UO-31 renal): 63.3 µM

O=C(Nc1cccc(Cl)c1)c1ccc(NC2=C(Cl)C(=O)N(Cc3ccccc3)C2=O)cc1
GI50 (786-0 renal): 8.61 µM
TGI (786-0 renal): 19.7 µM
GI50 (A498 renal): 34.4 µM
TGI (A498 renal): 96.2 µM
GI50 (A549 NSCLC): 33.3 µM
TGI (A549 NSCLC): > 100 µM
GI50 (ACHN renal): 17.6 µM
TGI (ACHN renal): > 53.4 µM
GI50 (BT-549 breast): 8.33 µM
TGI (BT-549 breast): 31.5 µM
GI50 (CAKI-1 renal): 14.7 µM
TGI (CAKI-1 renal): 50.8 µM
GI50 (CCRF-CEM leukemia): 0.436 µM
TGI (CCRF-CEM leukemia): 1.44 µM
GI50 (COLO 205 colon): 22.1 µM
TGI (COLO 205 colon): > 57 µM
GI50 (DU-145 prostate): 8.37 µM
TGI (DU-145 prostate): 19.2 µM
GI50 (EKVX NSCLC): > 46 µM
TGI (EKVX NSCLC): > 69.3 µM
GI50 (HCC-2998 colon): 1.68 µM
TGI (HCC-2998 colon): 3.83 µM
GI50 (HCT-116 colon): 6.31 µM
TGI (HCT-116 colon): 17.2 µM
GI50 (HCT-15 colon): 1.98 µM
TGI (HCT-15 colon): 4.76 µM
GI50 (HL-60(TB) leukemia): 3.79 µM
TGI (HL-60(TB) leukemia): 15.2 µM
GI50 (HOP-62 NSCLC): 18.2 µM
TGI (HOP-62 NSCLC): 33 µM
GI50 (HOP-92 NSCLC): 9.09 µM
TGI (HOP-92 NSCLC): 29.5 µM
GI50 (HS 578T breast): 18.6 µM
TGI (HS 578T breast): 48.5 µM
GI50 (HT29 colon): 8.43 µM
TGI (HT29 colon): > 100 µM
GI50 (IGROV1 ovarian): 9.95 µM
TGI (IGROV1 ovarian): > 62.6 µM
GI50 (K-562 leukemia): 2.58 µM
TGI (K-562 leukemia): 8.69 µM
GI50 (KM12 colon): > 38.3 µM
TGI (KM12 colon): > 56.2 µM
GI50 (LOX IMVI melanoma): 4.24 µM
TGI (LOX IMVI melanoma): 9.27 µM
GI50 (M14 melanoma): 16.6 µM
TGI (M14 melanoma): 37.3 µM
GI50 (MALME-3M melanoma): 24 µM
TGI (MALME-3M melanoma): 78.5 µM
GI50 (MCF7 breast): 3.19 µM
TGI (MCF7 breast): 12.2 µM
GI50 (MDA-MB-231 breast): 8.08 µM
TGI (MDA-MB-231 breast): 31.9 µM
GI50 (MDA-MB-435): 9.43 µM
TGI (MDA-MB-435): 33.6 µM
GI50 (MOLT-4 leukemia): 1.67 µM
TGI (MOLT-4 leukemia): 4.89 µM
GI50 (NCI-H226 lung): 14.8 µM
TGI (NCI-H226 lung): 31 µM
GI50 (NCI-H23 lung): 13.6 µM
TGI (NCI-H23 lung): 27 µM
GI50 (NCI-H460 lung): 9.11 µM
TGI (NCI-H460 lung): > 50.9 µM
GI50 (NCI-H522 lung): 5.6 µM
TGI (NCI-H522 lung): > 44.6 µM
GI50 (NCI/ADR-RES ovarian): 9.53 µM
TGI (NCI/ADR-RES ovarian): 24.9 µM
GI50 (OVCAR-3 ovarian): 6.08 µM
TGI (OVCAR-3 ovarian): 13.8 µM
GI50 (OVCAR-4 ovarian): 19.4 µM
TGI (OVCAR-4 ovarian): > 61.7 µM
GI50 (OVCAR-5 ovarian): 24.8 µM
TGI (OVCAR-5 ovarian): > 61.6 µM
GI50 (OVCAR-8 ovarian): 11.5 µM
TGI (OVCAR-8 ovarian): 27.3 µM
GI50 (PC-3 prostate): 9.48 µM
TGI (PC-3 prostate): 24.1 µM
GI50 (RXF 393 renal): 9.55 µM
TGI (RXF 393 renal): 24.7 µM
GI50 (SF-268 CNS): 8.93 µM
TGI (SF-268 CNS): 25.3 µM
GI50 (SF-295 CNS): 17.7 µM
TGI (SF-295 CNS): 56.9 µM
GI50 (SF-539 CNS): 20.4 µM
TGI (SF-539 CNS): 36.3 µM
GI50 (SK-MEL-2 melanoma): 18.9 µM
TGI (SK-MEL-2 melanoma): > 100 µM
GI50 (SK-MEL-28 melanoma): 14.4 µM
TGI (SK-MEL-28 melanoma): 31.7 µM
GI50 (SK-MEL-5 melanoma): 7.81 µM
TGI (SK-MEL-5 melanoma): 19.4 µM
GI50 (SK-OV-3 ovarian): 43.6 µM
TGI (SK-OV-3 ovarian): > 95.5 µM
GI50 (SN12C renal): 7.77 µM
TGI (SN12C renal): 23 µM
GI50 (SNB-19 CNS): 21.5 µM
TGI (SNB-19 CNS): > 59.2 µM
GI50 (SR leukemia): 1.39 µM
TGI (SR leukemia): 3.82 µM
GI50 (SW-620 colon): 7.4 µM
TGI (SW-620 colon): 19.7 µM
GI50 (T-47D breast): 17.8 µM
TGI (T-47D breast): > 54.4 µM
GI50 (TK-10 renal): 16.4 µM
TGI (TK-10 renal): 49.5 µM
GI50 (U251 CNS): 15.5 µM
TGI (U251 CNS): > 48.1 µM
GI50 (UACC-257 melanoma): 21.3 µM
TGI (UACC-257 melanoma): 49.7 µM
GI50 (UACC-62 melanoma): 11.6 µM
TGI (UACC-62 melanoma): 25.4 µM
GI50 (UO-31 renal): > 26.3 µM
TGI (UO-31 renal): > 100 µM
